Results: US20230372498A1, “PLK1 SELECTIVE DEGRADATION INDUCING COMPOUND” (UPPTHERA, priority 2020, published 2023)

Biological target: T1, PLK1 (Homo sapiens, UniProt P53350)
T1 construct: endogenous in cells; host or cells: HeLa
Experiment: PLK1 protein degradation in HeLa cells, Western blotting (PLK1/GAPDH ratio)
Assay type: cell-based
Conditions: 6 hours compound incubation; for Dmax: thymidine block and release, 10 points three-fold from 3 μM, PLK1 to GAPDH ratio, read-out: Dmax; for DC50: measured only if the grade of Dmax is A or B
Procedure, shortened: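 PLK1 level measured by Western blot as PLK1/GAPDH in HeLa lysates (15 μg protein per lane). Cells were blocked with 2 mM thymidine 24 h, released 4 h, and exposed 6 h to compound, 10 concentrations, 3-fold steps, top 3 μM.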

T1 sequence (P53350 whole entry): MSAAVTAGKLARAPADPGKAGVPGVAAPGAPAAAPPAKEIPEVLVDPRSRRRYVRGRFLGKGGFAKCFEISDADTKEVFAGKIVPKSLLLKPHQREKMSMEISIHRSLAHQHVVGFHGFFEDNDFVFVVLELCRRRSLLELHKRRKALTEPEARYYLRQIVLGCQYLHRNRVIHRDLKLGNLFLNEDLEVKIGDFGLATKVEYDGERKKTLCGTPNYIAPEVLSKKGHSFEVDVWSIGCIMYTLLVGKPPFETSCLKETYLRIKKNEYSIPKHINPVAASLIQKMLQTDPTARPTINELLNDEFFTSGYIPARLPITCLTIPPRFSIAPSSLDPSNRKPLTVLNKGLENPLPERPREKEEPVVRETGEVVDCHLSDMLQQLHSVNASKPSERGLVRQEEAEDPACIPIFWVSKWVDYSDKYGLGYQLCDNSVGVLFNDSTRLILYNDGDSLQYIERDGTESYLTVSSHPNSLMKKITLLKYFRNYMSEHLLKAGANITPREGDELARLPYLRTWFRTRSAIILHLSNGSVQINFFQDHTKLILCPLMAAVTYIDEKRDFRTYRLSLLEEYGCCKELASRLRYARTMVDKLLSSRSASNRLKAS

SMILES	Dmax [%]	DC50 [nM]
COc1cc(C(=O)N[C@H]2CCN(C(=O)CCNC(=O)CNc3cccc4c3C(=O)N(C3CCC(=O)NC3=O)C4=O)C2)c(F)cc1Nc1ncc2c(n1)N(C1CCCC1)CC(F)(F)C(=O)N2C (stereo partly drawn) [Compound 113, 4-((9-cyclopentyl-7,7-difluoro-5-methyl-6-oxo-6,7,8,9-tetrahydro-5H-pyrimido[4,5-b][1,4]diazepin-2-yl)amino)-N-((3S)-1-(3-(2-((2-(2,6-dioxopiperidin-3-yl)-1,3-dioxoisoindolin-4-yl)amino)acetamido)propanoyl)pyrrolidin-3-yl)-2-fluoro-5-methoxybenzamide]	< 60	
COc1cc(C(=O)N[C@H]2CCN(C(=O)COCCOCCOCCOCCNc3cccc4c3C(=O)N(C3CCC(=O)NC3=O)C4=O)C2)c(F)cc1Nc1ncc2c(n1)N(C1CCCC1)CC(F)(F)C(=O)N2C (stereo partly drawn) [Compound 116, 4-((9-cyclopentyl-7,7-difluoro-5-methyl-6-oxo-6,7,8,9-tetrahydro-5H-pyrimido[4,5-b][1,4]diazepin-2-yl)amino)-N-((3S)-1-(14-((2-(2,6-dioxopiperidin-3-yl)-1,3-dioxoisoindolin-4-yl)amino)-3,6,9,12-tetraoxatetradecanoyl)pyrrolidin-3-yl)-2-fluoro-5-methoxybenzamide]	≥ 80	≤ 50
COc1cc(C(=O)NC2CCN(C(=O)CCCCNc3cccc4c3C(=O)N(C3CCC(=O)NC3=O)C4=O)C2)c(F)cc1Nc1ncc2c(n1)N(C1CCCC1)CC(F)(F)C(=O)N2C (centres unmarked) [Compound 117, 4-((9-cyclopentyl-7,7-difluoro-5-methyl-6-oxo-6,7,8,9-tetrahydro-5H-pyrimido[4,5-b][1,4]diazepin-2-yl)amino)-N-(1-(5-((2-(2,6-dioxopiperidin-3-yl)-1,3-dioxoisoindolin-4-yl)amino)pentanoyl)pyrrolidin-3-yl)-2-fluoro-5-methoxybenzamide]	≥ 80	≤ 50
COc1cc(C(=O)NC2CCN(C(=O)CCCCCNc3cccc4c3C(=O)N(C3CCC(=O)NC3=O)C4=O)C2)c(F)cc1Nc1ncc2c(n1)N(C1CCCC1)CC(F)(F)C(=O)N2C (centres unmarked) [Compound 118, 4-((9-cyclopentyl-7,7-difluoro-5-methyl-6-oxo-6,7,8,9-tetrahydro-5H-pyrimido[4,5-b][1,4]diazepin-2-yl)amino)-N-(1-(6-((2-(2,6-dioxopiperidin-3-yl)-1,3-dioxoisoindolin-4-yl)amino)hexanoyl)pyrrolidin-3-yl)-2-fluoro-5-methoxybenzamide]	≥ 80	≤ 50
COc1cc(C(=O)N[C@H]2CCN(C(=O)CCCCCNc3cccc4c3C(=O)N(C3CCC(=O)NC3=O)C4=O)C2)c(F)cc1Nc1ncc2c(n1)N(C1CCCC1)CC(F)(F)C(=O)N2C (stereo partly drawn) [Compound 119, 4-((9-cyclopentyl-7,7-difluoro-5-methyl-6-oxo-6,7,8,9-tetrahydro-5H-pyrimido[4,5-b][1,4]diazepin-2-yl)amino)-N-((3S)-1-(6-((2-(2,6-dioxopiperidin-3-yl)-1,3-dioxoisoindolin-4-yl)amino)hexanoyl)pyrrolidin-3-yl)-2-fluoro-5-methoxybenzamide]	≥ 80	≤ 50
COc1cc(C(=O)N[C@@H]2CCN(C(=O)CCCCCNc3cccc4c3C(=O)N(C3CCC(=O)NC3=O)C4=O)C2)c(F)cc1Nc1ncc2c(n1)N(C1CCCC1)CC(F)(F)C(=O)N2C (stereo partly drawn) [Compound 120, 4-((9-cyclopentyl-7,7-difluoro-5-methyl-6-oxo-6,7,8,9-tetrahydro-5H-pyrimido[4,5-b][1,4]diazepin-2-yl)amino)-N-((3R)-1-(6-((2-(2,6-dioxopiperidin-3-yl)-1,3-dioxoisoindolin-4-yl)amino)hexanoyl)pyrrolidin-3-yl)-2-fluoro-5-methoxybenzamide]	≥ 80	≤ 50
COc1cc(C(=O)NC2CN(CCOCCOCCNc3cccc4c3C(=O)N(C3CCC(=O)NC3=O)C4=O)C2)c(F)cc1Nc1ncc2c(n1)N(C1CCCC1)CC(F)(F)C(=O)N2C (centres unmarked) [Compound 123, 4-((9-cyclopentyl-7,7-difluoro-5-methyl-6-oxo-6,7,8,9-tetrahydro-5H-pyrimido[4,5-b][1,4]diazepin-2-yl)amino)-N-(1-(2-(2-(2-((2-(2,6-dioxopiperidin-3-yl)-1,3-dioxoisoindolin-4-yl)amino)ethoxy)ethoxy)ethyl)azetidin-3-yl)-2-fluoro-5-methoxybenzamide]	≥ 80	≤ 50
COc1cc(C(=O)NCC2CCCN2CCOCCNc2cccc3c2C(=O)N(C2CCC(=O)NC2=O)C3=O)c(F)cc1Nc1ncc2c(n1)N(C1CCCC1)CC(F)(F)C(=O)N2C (centres unmarked) [Compound 124, 4-((9-cyclopentyl-7,7-difluoro-5-methyl-6-oxo-6,7,8,9-tetrahydro-5H-pyrimido[4,5-b][1,4]diazepin-2-yl)amino)-N-((1-(2-(2-((2-(2,6-dioxopiperidin-3-yl)-1,3-dioxoisoindolin-4-yl)amino)ethoxy)ethyl)pyrrolidin-2-yl)methyl)-2-fluoro-5-methoxybenzamide]	60 to 80	≤ 500

Further lines, results first:

Dmax [%]	DC50 [nM]	SMILES
≥ 80	≤ 50	COc1cc(C(=O)NC2CCN(C(=O)CCOCCNc3cccc4c3C(=O)N(C3CCC(=O)NC3=O)C4=O)C2)c(F)cc1Nc1ncc2c(n1)N(C1CCCC1)CC(F)(F)C(=O)N2C (centres unmarked) [Compound 114, 4-((9-cyclopentyl-7,7-difluoro-5-methyl-6-oxo-6,7,8,9-tetrahydro-5H-pyrimido[4,5-b][1,4]diazepin-2-yl)amino)-N-(1-(3-(2-((2-(2,6-dioxopiperidin-3-yl)-1,3-dioxoisoindolin-4-yl)amino)ethoxy)propanoyl)pyrrolidin-3-yl)-2-fluoro-5-methoxybenzamide]
≥ 80	≤ 50	COc1cc(C(=O)N[C@H]2CCN(C(=O)COCCOCCNc3cccc4c3C(=O)N(C3CCC(=O)NC3=O)C4=O)C2)c(F)cc1Nc1ncc2c(n1)N(C1CCCC1)CC(F)(F)C(=O)N2C (stereo partly drawn) [Compound 115, 4-((9-cyclopentyl-7,7-difluoro-5-methyl-6-oxo-6,7,8,9-tetrahydro-5H-pyrimido[4,5-b][1,4]diazepin-2-yl)amino)-N-((3S)-1-(2-(2-(2-((2-(2,6-dioxopiperidin-3-yl)-1,3-dioxoisoindolin-4-yl)amino)ethoxy)ethoxy)acetyl)pyrrolidin-3-yl)-2-fluoro-5-methoxybenzamide]
≥ 80	≤ 50	COc1cc(C(=O)N[C@H]2CCN(CC(=O)NCCOCCNc3cccc4c3C(=O)N(C3CCC(=O)NC3=O)C4=O)C2)c(F)cc1Nc1ncc2c(n1)N(C1CCCC1)CC(F)(F)C(=O)N2C (stereo partly drawn) [Compound 121, 4-((9-cyclopentyl-7,7-difluoro-5-methyl-6-oxo-6,7,8,9-tetrahydro-5H-pyrimido[4,5-b][1,4]diazepin-2-yl)amino)-N-((3S)-1-(2-((2-(2-((2-(2,6-dioxopiperidin-3-yl)-1,3-dioxoisoindolin-4-yl)amino)ethoxy)ethyl)amino)-2-oxoethyl)pyrrolidin-3-yl)-2-fluoro-5-methoxybenzamide]
≥ 80	≤ 50	COc1cc(C(=O)N[C@H]2CCN(CC(=O)NCCCNc3cccc4c3C(=O)N(C3CCC(=O)NC3=O)C4=O)C2)c(F)cc1Nc1ncc2c(n1)N(C1CCCC1)CC(F)(F)C(=O)N2C (some centres unmarked) [Compound 122]
